Results as given in patent publication US20240279201A1, “DUAL WNT SIGNALING PATHWAY INHIBITORS AND AMPK ACTIVATORS FOR TREATMENTS OF DISEASE” (priority 2021, published 2024).

Legend:
[1] = test system: Wnt/β-Catenin signaling pathway; assay: Wnt signaling luciferase (TOPflash) reporter gene assay; type: cell-based; conditions: for IC50: luciferase reporter gene assay, mean of three independent experiments, read-out: IC50 (nM) to inhibit the Wnt signaling activity
From the text: A dual-luciferase gene reporter assay was used to test inhibitory activities of new compounds on Wnt signaling. […] Therefore, the effects of new compounds on AMPK was examined. […]

[2] = Cytotoxicity (CC50) during the luciferase gene reporter assay; type: cell-based; conditions: human, HEK293 cells; short treatment duration of the luciferase gene reporter assay

| SMILES | IC50 [1] [nM] | CC50 [2] [nM] | inhibition at 1 µM [1] [%] | inhibitory activity in the reporter assay ([1]; biotinylated analogs) |
| --- | --- | --- | --- | --- |
| O=C(Nc1ccc2ccccc2n1)c1nnn(-c2ccccc2F)n1 [YA70032, 2-(2-Fluorophenyl)-N-(quinolin-2-yl)-2H-tetrazole-5-carboxamide] | > 1000 | > 92000 |  |  |
| Cc1ccccc1-n1ncc(C(=O)Nc2ccc(-c3ccccc3)cn2)c1C [YA7018, 5-Methyl-N-(5-phenylpyridin-2-yl)-1-(o-tolyl)-1H-pyrazole-4-carboxamide] | > 1000 | > 92000 |  |  |
| Cc1ccccc1-n1nnc(C(=O)Nc2ccc3ncccc3c2)c1C [YA6056, 5-Methyl-N-(quinolin-6-yl)-1-(o-tolyl)-1H-1,2,3-triazole-4-carboxamide] | > 1000 | > 92000 |  |  |
| O=C(Nc1cnc2ccccc2n1)c1nnn(-c2ccccc2)n1 [YA6177, 2-Phenyl-N-(quinoxalin-2-yl)-2H-tetrazole-5-carboxamide] | > 1000 | > 92000 |  |  |
| Cc1c(C(=O)Nc2nc3ccccc3s2)cnn1-c1c(F)cccc1F [YA4019, N-(benzo[d]thiazol-2-yl)-1-(2,6-difluorophenyl)-5-methyl-1H-pyrazole-4-carboxamide] | 0.9 | > 92000 |  |  |
| COc1ccccc1-n1ncc(C(=O)Nc2nc3ccccc3s2)c1C [YA7020, N-(Benzo[d]thiazol-2-yl)-1-(2-methoxyphenyl)-5-methyl-1H-pyrazole-4-carboxamide] | 9.5 | > 92000 |  |  |
| Cc1ccccc1-n1nnc(C(=O)Nc2nc(-c3ccccc3F)cs2)c1C [YA4143] | > 1000 | > 92000 |  |  |
| Cc1ccccc1-n1nnc(C(=O)Nc2ccc3ccccc3n2)n1 [YA70031, N-(Quinolin-2-yl)-2-(o-tolyl)-2H-tetrazole-5-carboxamide] | > 1000 | > 92000 |  |  |
| Cc1ccccc1-n1nnc(C(=O)Nc2nc3c(Cl)cccc3s2)c1C [YA4095, N-(4-Chlorobenzo[d]thiazol-2-yl)-5-methyl-1-(o-tolyl)-1H-1,2,3-triazole-4-carboxamide] | > 1000 | > 92000 | 8 |  |
| Cc1cccc(Cl)c1-n1nnc(C(=O)Nc2nc3ccccc3s2)c1C [YA1068, N-(Benzo[d]thiazol-2-yl)-1-(2-chloro-6-methylphenyl)-5-methyl-1H-1,2,3-triazole-4-carboxamide] | 35 | > 92000 | 80 |  |
| CC(C)(C)c1c(C(=O)Nc2nc3ccccc3s2)nnn1-c1ccccc1F [YA6176, N-(Benzo[d]thiazol-2-yl)-5-(tert-butyl)-1-(2-fluorophenyl)-1H-1,2,3-triazole-4-carboxamide] | 251 | > 92000 | 58 |  |
| O=C(Nc1nc2ccccc2s1)c1csc(-c2ccccc2)n1 [YA6082] | 470 | > 92000 | 70 |  |
| Cc1ccccc1-n1nnc(C(=O)Nc2nc3c(F)cccc3s2)c1C [YA4093, N-(4-Fluorobenzo[d]thiazol-2-yl)-5-methyl-1-(o-tolyl)-1H-1,2,3-triazole-4-carboxamide] | > 1000 | > 92000 | 37 |  |
| Cc1ccccc1-n1nnc(C(=O)Nc2ccc3cc(CN4CCN(C(=O)CCOCCOCCOCCOCCNC(=O)CCCC[C@@H]5SC[C@@H]6NC(=O)N[C@@H]65)CC4)ccc3n2)c1C [YA6023] |  |  |  | maintained inhibitory activities |
| O=C(Nc1nc2ccccc2s1)c1cnn(-c2ccccc2)c1 [YA6149, N-(Benzo[d]thiazol-2-yl)-1-phenyl-1H-pyrazole-4-carboxamide] |  | > 92000 |  |  |
| Cc1cc(/C=C/c2ccc3cc(N(C)C)ccc3[n+]2C)c(C)n1-c1ccccc1 [Pyrvinium, reference compound] | 599 |  | 69 |  |
| Cc1c(C(=O)Nc2nc3ccccc3s2)nnn1-c1cccc(Cl)c1 [YA4055, N-(Benzo[d]thiazol-2-yl)-1-(3-chlorophenyl)-5-methyl-1H-1,2,3-triazole-4-carboxamide] |  | > 92000 |  |  |
